Source: patent publication EP2514430B1, “METHOD AND APPARATUS FOR SIMULTANEOUSLY MANUFACTURING ULTRA PURE BETULIN AND HIGHLY PURE BETULINIC ACID FROM BIRCH BARK” (Korea Institute of Energy Research, priority 2009, dated 2011)
Values after ≈ are worked out from the molar mass of the structure shown. Where two headings read alike, the source gives them in different places.

Assays:
[1] = Solubility of betulin in single and mixed polar organic solvents; assay type: physicochemical; settings: organic solvent or mixture
Excerpt: This recrystallization step is an intermediate step for obtaining ultrapure betulin of 99.5% or more and highly-pure betulinic acid of 95% or more. The outer bark and inner bark of a birch tree generally includes betulin, betulinic acid, lupeol (CAS 545-47-1) and polar pigment components. […] When the outer bark of a birch tree is extracted using such a polar organic solvent, a crude extract including 70 ∼ 83% of betulin, 4 ∼ 8% of betulinic acid and residual polar pigment components can be obtained. In this case, in order to use betulin and betulinic acid as intermediate materials for fine chemical products or medical supplies or additives for enhancing antiviral activity, the crude extract is recrystallized.
Preferably, a mixture of organic solvents having a density range of 0.91 g/mL ∼ 1.37 g/mL may be used. […] The crude extract is recrystallized using such a mixture of organic solvents to obtain a high-quality crystallized product (including a secondary crystallized product) including 94 ∼ 96.5% of betulin, 3 ∼ 4% of betulinic acid and residual polar pigment components, and then ultrapure betulin is produced using a 4-bed eluent swing continuous adsorption unit.

herpes simplex viruses = settings: betulin mixed with acyclovir; Gong et al. 2004; cited from earlier work
[2] = tested on: human prostatic cancer cells (LNCaP, PC-3, and DU-145) and fibroblast cells; settings: PC-3, DU-145 and fibroblast cells, US 2006/0154903; cited from earlier work

SMILES	solubility ([1]; chloroform, at 60.5°C, read-out: solubility of betulin in chloroform) [mg/mL]	solubility ([1]; chloroform:ethanol 18:82 v/v, density = 0.91 g/mL, at 60.5°C, read-out: solubility of betulin in the mixed solvent of chloroform and ethanol) [mg/mL]	solubility ([1]; chloroform:ethanol 57:43 v/v, density = 1.19 g/mL, at 60.5°C, read-out: solubility of betulin in the mixed solvent of chloroform and ethanol) [mg/mL]	solubility ([1]; chloroform:ethanol 82:18 v/v, density = 1.37 g/mL, at 60.5°C, read-out: solubility of betulin in the mixed solvent of chloroform and ethanol) [mg/mL]	solubility ([1]; ethanol, at 77.1°C, read-out: solubility of betulin in ethanol) [mg/mL]	solubility ([1]; ethanol, at 78°C, read-out: solubility of betulin in ethanol) [mg/mL]	solubility ([1]; ethyl acetate, at 60.5°C, read-out: solubility of betulin in ethyl acetate) [mg/mL]	solubility ([1]; ethyl acetate, at 77.1°C, read-out: solubility of betulin in ethyl acetate) [mg/mL]	solubility ([1]; methanol, at 64.7°C, read-out: solubility of betulin in methanol) [mg/mL]	antiviral effects to herpes simplex viruses (herpes simplex viruses)	inhibiting the growth of human prostatic cancer cells and fibroblast cells [2]
C=C(C)[C@@H]1CC[C@]2(CO)CC[C@]3(C)[C@H](CC[C@@H]4[C@@]5(C)CC[C@H](O)C(C)(C)[C@@H]5CC[C@]43C)[C@@H]12 [betulin]	≤ 40.7	38.6 (≈ 87.2 mM)	140 (≈ 316 mM)	163 (≈ 368 mM)	≤ 23	≤ 18.5	≤ 40.7	≤ 23	≤ 6.73	antiviral effects were provided	
C=C(C)[C@@H]1CC[C@]2(C(=O)O)CC[C@]3(C)[C@H](CC[C@@H]4[C@@]5(C)CCC(=O)C(C)(C)[C@@H]5CC[C@]43C)[C@@H]12 [butulonic acid]											has an effect on inhibiting the growth
